# From publication PMC4448209 (Journal of Neuroinflammation, 2015)
# Entries after “also recorded” stand apart in the source; their conditions may differ.
# Tests used:
# Aβ-specific antibodies [1] = assay: Anti-Aβ antibody ELISA, HLA-A2.1/HLA-DR1 mice; assay type: in vivo, mouse; settings: Aβ1-42-coated plates, relative OD
# Description: (§1) To measure serum anti-Aβ antibody titers in immunized mice, flat-bottom Nunc MaxiSorp ELISA plates were coated overnight at 4 °C with Aβ1-42 peptide (1 μg/ml in 0.1 M NaHCO3, pH 8.3). Plates were then washed twice with PBS-T and blocked with PBS-1 % BSA for 2 h at room temperature (RT). After two washes, plates were incubated for 2 h at RT with serum samples at various dilutions in blocking buffer. The Aβ1-17-specific mAb 6E10 (0.01 and 1 μg/ml) (Sigma-Aldrich, St Quentin Fallavier, France) was used as a positive internal reference sample. […] Results were expressed as relative OD = Experimental OD/Reference OD for 6E10 mAb in the same plate.
# Aβ-specific antibodies [2] = assay: Anti-Aβ antibody ELISA, C57BL/6 mice; assay type: in vivo, mouse
# Description: as §1
# AD patients [3] = settings: cited from earlier work
# Text: (§2) Alzheimer’s disease (AD) is a severe neurodegenerative disorder characterized by progressive loss of memory and cognitive functions. Accumulation of amyloid-β peptide (Aβ), both as soluble oligomers and in the form of amyloid plaques, plays a key role in initiating the pathogenic cascade in AD. […] In line with ...
# animal models of AD = settings: vaccination; cited from earlier work
# Text: as §2
# [4] = tested on: IFNγ-secreting splenocytes; settings: HLA-A2.1/HLA-DR1 mice, Aβ/CpG/IFA; dendritic cells loaded with Aβ or overlapping nonamer peptides; data not shown
# [5] = Hydrophobicity and solubility remark from peptide synthesis; assay type: physicochemical; settings: likely reason why the 15-mer could not be productively synthetized
# [6] = tested on: IFNγ-secreting splenocytes; assay: IFNγ ELISPOT, splenocytes of immunized C57BL/6 mice; assay type: in vivo, mouse
# 1C11 neuronal cells = assay: IFNγ ELISPOT, restimulation with 1C11 neuronal cells; settings: inferred from 1C11 cells and APPPS1 CD11b^+ microglia
# Description: Nitrocellulose-based 96-well plates (Millipore, Billerica, MA, USA) were coated with anti-mouse IFN-γ capture mAb (1 μg/ml; clone R4-6A2, BD Biosciences) and saturated with complete culture medium. Responder splenocytes from individual mice were seeded at 10^6 or 5 × 10^5 cells/wells and cultured with medium alone or containing 10 μg/ml of peptide. In some experiments, splenocytes were stimulated with CD11b^+ microglia (3 × 10^4/wells) isolated from the brain of WT or APPPS1 mice, or with mitomycin-treated 1C11 cells (2 × 10^4/wells), a neuronal cell line expressing both APP and H-2^b MHC-I but not MHC-II molecules [25, 26]. Plates were incubated at 37 °C in 5 % CO2 for 18 h, washed, and incubated with biotinylated anti-mouse IFNγ detection mAb (0.5 μ/ml; clone XMG1.2, BD Biosciences). Alkaline phosphatase conjugated to streptavidin (Roche, France) (1/500 dilution, 100 μL/well) was then added. IFNγ-secreting cells were visualized using TNB/BCIP substrate (Promega, Charbonnières, France), and spots were counted using an automatic ELISPOT plate reader. Samples were assayed in triplicate, and the frequency of peptide-specific T cells was calculated after subtracting the mean number of spots obtained in the absence of peptide or cells.
# AD patients [7] = settings: phase 3 studies released summer 2012; 10 (bapineuzumab), 11 (solanezumab); cited from earlier work
substance,measurement,setting,value
Aβ1-42: Human Aβ1-42 peptide,Aβ-specific antibodies in serum,Aβ-specific antibodies [1],Aβ-specific antibodies were detected
same,anti-Aβ antibody isotypes,Aβ-specific antibodies [2],predominantly of IgG1 and IgG2b isotypes
same,beneficial effects in AD patients,AD patients [3]; AN1792,modest beneficial effects
same,patients developing meningoencephalitis,"AD patients [3]; human, in vivo",6%
same,benefit in animal models of AD,animal models of AD,of benefit in animal models of AD
same,CD8^+ T cell response,[4],did not trigger any CD8^+ T cells able to recognize dendritic cells loaded with either Aβ or overlapping nonamer peptides
"Aβ28-42: 15-mer candidate peptide, could not be productively synthetized (KGAIIGLMVGGVVIA; Amyloid-beta protein 42; UniProt P05067 699-713, looked up, fragment)",hydrophobicity,[5],very high hydrophobicity
same,solubility,[5],poor solubility
GLMVGGVVI [Aβ33-41],restimulation of Aβ33-41NP-specific CD8^+ T cells by exogenously loaded native peptide,[6],could not restimulate Aβ33-41NP-specific CD8^+ T cells when loaded exogenously
same,natural processing and presentation by microglia and neuronal cells,1C11 neuronal cells,can be naturally processed and presented in both microglia and neuronal cells; also recorded: appears to be naturally processed and presented to immune effectors
solanezumab: humanized anti-Aβ monoclonal antibody,improvement of cognitive performance,AD patients [7],inefficient at improving cognitive performance
